# Measurements: paper PMC5469811, “Identification of GXXXXG motif in Chrysophsin-1 and its implication in the design of analogs with cell-selective antimicrobial and anti-endotoxin activities” (Scientific Reports, 2017)
# Residues, ends and D or L forms follow the SMILES beside them.
# What was measured:
# [1] = system: Escherichia coli (ATCC 25922); assay: microbe, parasite or virus in culture; type: cell-based; details: Escherichia coli (ATCC 25922); averages of three repeats; read-out: Minimum inhibitory concentration (MIC)
# Procedure: (§1) Antibacterial assay against various Gram-positive and Gram-negative strains of bacteria was performed by the serial two-fold dilution method according to the previously reported procedure, [36]. The antibacterial assays were repeated thrice and the averages of these MIC values were reported.
# [2] = system: Pseudomonas aeruginosa (ATCC BAA-427); assay: microbe, parasite or virus in culture; type: cell-based; details: Pseudomonas aeruginosa (ATCC BAA-427); averages of three repeats; read-out: Minimum inhibitory concentration (MIC)
# Procedure: as §1
# [3] = system: Staphylococcus aureus (ATCC 25923); assay: microbe, parasite or virus in culture; type: cell-based; details: Staphylococcus aureus (ATCC 25923); averages of three repeats; read-out: Minimum inhibitory concentration (MIC)
# Procedure: as §1
# [4] = system: Klebsiella pneumoniae (ATCC 27736); assay: microbe, parasite or virus in culture; type: cell-based; details: Klebsiella pneumoniae (ATCC 27736); averages of three repeats; read-out: Minimum inhibitory concentration (MIC)
# Procedure: as §1
# [5] = system: Staphylococcus aureus (ATCC 33592) Methicillin resistant Genatmicin resistant; assay: microbe, parasite or virus in culture; type: cell-based; details: Staphylococcus aureus (ATCC 33592), methicillin and gentamicin resistant; averages of three repeats; read-out: Minimum inhibitory concentration (MIC)
# Procedure: as §1
# [6] = system: Staphylococcus aureus (ATCC 700698 MRSA); assay: microbe, parasite or virus in culture; type: cell-based; details: Staphylococcus aureus (ATCC 700698 MRSA); averages of three repeats; read-out: Minimum inhibitory concentration (MIC)
# Procedure: as §1
# [7] = system: Staphylococcus aureus (ATCC 700699 MRSA); assay: microbe, parasite or virus in culture; type: cell-based; details: Staphylococcus aureus (ATCC 700699 MRSA); averages of three repeats; read-out: Minimum inhibitory concentration (MIC)
# Procedure: as §1
# [8] = system: Staphylococcus aureus (ATCC 29213); assay: microbe, parasite or virus in culture; type: cell-based; details: Staphylococcus aureus (ATCC 29213); averages of three repeats; read-out: Minimum inhibitory concentration (MIC)
# Procedure: as §1
# [9] = system: Bacillus subtilis (ATCC 6633); assay: microbe, parasite or virus in culture; type: cell-based; details: Bacillus subtilis (ATCC 6633); averages of three repeats; read-out: Minimum inhibitory concentration (MIC)
# Procedure: as §1
# [10] = system: Escherichia coli (ATCC 9637); assay: microbe, parasite or virus in culture; type: cell-based; details: Escherichia coli (ATCC 9637); averages of three repeats; read-out: Minimum inhibitory concentration (MIC)
# Procedure: as §1
# [11] = system: Staphylococcus aureus (BAA-44)MDR; assay: microbe, parasite or virus in culture; type: cell-based; details: Staphylococcus aureus (BAA-44) MDR; averages of three repeats; read-out: Minimum inhibitory concentration (MIC)
# Procedure: as §1
# Cryptococcus neoformans = assay: microbe, parasite or virus in culture; type: cell-based; details: Cryptococcus neoformans; NCCLS micro broth dilution, 35 °C, 72 h, absorbance 492 nm; read-out: Minimum inhibitory concentration (MIC)
# Procedure: (§2) The anti- fungal activity of peptides was performed according to the standard micro broth dilution technique as per NCCLS guidelines. These plates were incubated in a moist chamber at 35 °C, and an absorbance at 492 nm was recorded on a VersaMax microplate reader after 48 h for C. albicans ATCC 10231 and C. parapsilosis ATCC 22019 and 72 h for C. neoformans.
# [12] = system: Candida parapsilosis (ATCC 22019); assay: microbe, parasite or virus in culture; type: cell-based; details: Candida parapsilosis (ATCC 22019); NCCLS micro broth dilution, 35 °C, 48 h, absorbance 492 nm; read-out: Minimum inhibitory concentration (MIC)
# Procedure: as §2
# [13] = system: Candida albicans (ATCC 10231); assay: microbe, parasite or virus in culture; type: cell-based; details: Candida albicans (ATCC 10231); NCCLS micro broth dilution, 35 °C, 48 h, absorbance 492 nm; read-out: Minimum inhibitory concentration (MIC)
# Procedure: as §2
# E. coli (ATCC 25922) = type: cell-based, Escherichia coli; details: E. coli (ATCC 25922)
# Procedure: (§3) E. coli ATCC25922 was grown to 10^6 CFU/ml in fresh MH broth with various divalent and monovalent salts at their physiological concentrations. Serial dilutions of chrysophsin-1 and its variants prepared with the same MH broth were added to the E. coli ATCC 25922 suspensions. The bacteria were incubated at 37 °C in a shaking incubator for 18 h and the MIC values of individual peptides against E. coli ATCC 25922 were determined. Thermal tolerance of Chrysophsin-1 and its variants was checked by incubating the peptides at 4 °C, 60 °C and 90 °C for 1 h prior to MIC determination. The antibacterial activity in presence of serum was carried out by adding a final concentration of 10% fetal bovine serum in the assay diluents containing 0.4% BSA, 0.02% glacial acetic acid. The subsequent steps in both the experiments were consistent with the MIC determination method.
# E. coli ATCC 25922 [14] = type: cell-based, Escherichia coli; details: E. coli ATCC 25922
# Procedure: as §3
# E. coli ATCC 25922 [15] = assay: Synergy with conventional antibiotics, checkerboard titration; type: cell-based, Escherichia coli
# Procedure: The checkerboard titration method was followed to check the synergy of peptides with other antibiotics. First, 2-fold serial dilutions of the antibiotics and antimicrobial peptides were prepared. Subsequently, 50 μl each of different concentrations of antibiotics and of antimicrobial peptides was mixed and added into 100 μl of log phase bacteria culture in a 96-well plate. The plates were then incubated at 37 °C for 24 h. The fractional inhibitory concentration (FIC) index (FICI) was calculated as follows[39]: FICI=(MICofdrugAincombination)/(MICofdrugAalone)+(MICofdrugBincombination)/(MICofdrugB): FICI < 0.5 is considered to indicate synergy; 0.5 < FICI < 1.0 is considered additive; 1.0 < FICI < 4.0 is considered indifferent; and FICI > 4.0 is considered antagonism.
# S. aureus (ATCC 25923) = type: cell-based, Staphylococcus aureus; details: S. aureus (ATCC 25923)
# Procedure: as §3
# [16] = system: Sporothrix schenckii (Patient isolates); assay: microbe, parasite or virus in culture; type: cell-based; details: Sporothrix schenckii (patient isolates); NCCLS micro broth dilution, 35 °C; read-out: Minimum inhibitory concentration (MIC)
# [17] = peptide incubated 1 h at 4 °C prior to MIC determination
# [18] = peptide incubated 1 h at 60 °C prior to MIC determination
# [19] = peptide incubated 1 h at 90 °C prior to MIC determination
smiles,measurement,setting,value
"CC[C@H](C)[C@H](NC(=O)[C@H](C)NC(=O)[C@H](CCCCN)NC(=O)CNC(=O)[C@H](C)NC(=O)[C@H](Cc1c[nH]cn1)NC(=O)[C@@H](NC(=O)[C@H](C)NC(=O)CNC(=O)[C@H](CCCCN)NC(=O)[C@@H](NC(=O)[C@H](CC(C)C)NC(=O)[C@H](Cc1c[nH]c2ccccc12)NC(=O)CNC(=O)[C@H](Cc1ccccc1)NC(=O)[C@@H](N)Cc1ccccc1)[C@@H](C)CC)[C@@H](C)CC)C(=O)N[C@@H](Cc1c[nH]cn1)C(=O)NCC(=O)N[C@@H](CC(C)C)C(=O)N[C@H](C(=O)N[C@@H](Cc1c[nH]cn1)C(=O)N[C@@H](CCCNC(=N)N)C(=O)N[C@@H](CCCNC(=N)N)C(=O)N[C@@H](CCCNC(=N)N)C(=O)N[C@@H](Cc1c[nH]cn1)C(N)=O)[C@@H](C)CC [Chr-1, reference compound] (H-FFGWLIKGAIHAGKAIHGLIHRRRH-NH2; N-terminus assumed)",MIC,[1],3 µM
same,MIC,[2],6.8 µM
same,MIC,[3],3 µM
same,MIC,[4],3 µM
same,MIC,[5],1.6 µM
same,MIC,[6],3 µM
same,MIC,[7],1.6 µM
same,MIC,[8],1.6 µM
same,MIC,[9],6 µM
same,MIC,[10],3.4 µM
same,MIC,[11],1.6 µM
same,MIC,Cryptococcus neoformans,3 µM
same,MIC,[12],3 µM
same,MIC,[13],6.8 µM
same,Antibacterial activity (MIC) after incubating peptide at 4 °C,E. coli (ATCC 25922); [17],3 µM
same,Antibacterial activity (MIC) after incubating peptide at 60 °C,E. coli (ATCC 25922); [18],8.3 µM
same,Antibacterial activity (MIC) after incubating peptide at 90 °C,E. coli (ATCC 25922); [19],8.6 µM
same,Antibacterial activity (MIC) in the presence of 10% FBS,"E. coli ATCC 25922 [14]; 10% fetal bovine serum in assay diluent with 0.4% BSA, 0.02% glacial acetic acid",17.2 µM
same,Antibacterial activity (MIC) in the presence of FeCl3,"E. coli ATCC 25922 [14]; FeCl3 4 μM in MH broth, 37 °C, 18 h",4.3 µM
same,Antibacterial activity (MIC) in the presence of KCl,"E. coli ATCC 25922 [14]; KCl 4.5 mM in MH broth, 37 °C, 18 h",4.3 µM
same,Antibacterial activity (MIC) in the presence of MgCl2,"E. coli ATCC 25922 [14]; MgCl2 1 mM in MH broth, 37 °C, 18 h",8.6 µM
same,Antibacterial activity (MIC) in the presence of NH4Cl,"E. coli ATCC 25922 [14]; NH4Cl 6 μM in MH broth, 37 °C, 18 h",4.3 µM
same,Antibacterial activity (MIC) in the presence of NaCl,"E. coli ATCC 25922 [14]; NaCl 150 mM in MH broth, 37 °C, 18 h",8.3 µM
same,Antibacterial activity (MIC) in the presence of ZnCl2,"E. coli ATCC 25922 [14]; ZnCl2 8 μM in MH broth, 37 °C, 18 h",4.3 µM
same,interaction of peptide with chloramphenicol (by FICI),E. coli ATCC 25922 [15],synergy (FICI < 0.5 is considered to indicate synergy)
same,Antibacterial activity (MIC) after incubating peptide at 4 °C,S. aureus (ATCC 25923); [17],3 µM
same,Antibacterial activity (MIC) after incubating peptide at 60 °C,S. aureus (ATCC 25923); [18],12.6 µM
same,Antibacterial activity (MIC) after incubating peptide at 90 °C,S. aureus (ATCC 25923); [19],16.6 µM
same,MIC,[16],13.6 µM
